Experimental data reported in patent US10808007B2, “Desacetoxytubulysin H and analogs thereof” (WILLIAM MARSH RICE UNIVERSITY, priority 2015, dated 2020).
pIC50: −log10 of the molar value. Like-named read-outs stand apart in the source and are kept apart here.

Tests used:
Type in all cases: cell-based
[1] = tested on: MES SA (uterine sarcoma cells); experiment: Cytotoxic assay (CellTiter-Glo, 72 h), MES SA; settings: for IC50: read-out: MES SA IC50 (nM)
[2] = tested on: HEK 293T (human embryonic kidney cells); experiment: Cytotoxic assay (CellTiter-Glo, 72 h), HEK 293T; settings: for IC50: read-out: HEK 293T IC50 (nM)
[3] = tested on: MES SA DX (multidrug resistant uterine sarcoma cells); experiment: Cytotoxic assay (CellTiter-Glo, 72 h), MES SA DX; settings: Homo sapiens
[4] = Homo sapiens, MES-SA, 72 h, read-out: IC50 MES SA
[5] = Homo sapiens, HEK-293T, 72 h, read-out: IC50 HEK 293T

| SMILES | pIC50 [1, 4] | pIC50 [2, 5] | pIC50 [3] | IC50 ([1]; Homo sapiens, MES-SA) [nM] | IC50 ([2]; Homo sapiens, HEK-293T) [nM] | further results |
| --- | --- | --- | --- | --- | --- | --- |
| CC[C@H](C)[C@H](NC(=O)[C@H]1CCCCN1C)C(=O)N(C)[C@H](CCc1nc(C(=O)N[C@@H](Cc2ccccc2)C[C@H](C)C(=O)OC)cs1)C(C)C [PTb-D42, Methyl(2S,4R)-4-(2-((R)-3-((2S,3S)—N,3-dimethyl-2-((R)-1-methylpiperidine-2-carboxamido)pentanamido)-4-methylpentyl)thiazole-4-carboxamido)-2-methyl-5-phenylpentanoate] | < 6.00 | < 6.00 | < 6.00 | – | – | – |
| CC[C@H](C)[C@H](NC(=O)[C@H]1CCCCN1C)C(=O)N(C)[C@H](CCc1nc(C(=O)N[C@@H](Cc2ccccc2)C[C@H](C)C(=O)O)cs1)C(C)C [PTb-D43, pretubulysin D, reference compound] | 6.39 | 6.96 | < 6.00 | – | – | – |
| CCCCN1CCCC[C@@H]1C(=O)N[C@H](C(=O)N(C)[C@H](CCc1nc(C(=O)N[C@@H](Cc2ccccc2)C[C@H](C)C(=O)OC)cs1)C(C)C)[C@@H](C)CC [PTb-D49, Methyl(2S,4R)-4-(2-((R)-3-((2S,3S)-2-((R)-1-butylpiperidine-2-carboxamido)-N,3-dimethylpentanamido)-4-methylpentyl)thiazole-4-carboxamido)-2-methyl-5-phenylpentanoate] | – | – | – | > 100 | > 100 | – |
| COC(=O)[C@@H](C)C[C@H](Cc1ccccc1)NC(=O)c1csc(CC[C@H](C(C)C)N(C)C(=O)[C@@H](NC(=O)[C@H]2CCCCN2C)C(C)C)n1 [PTb-D50, Methyl(2S,4R)-4-(2-((R)-3-((S)—N,3-dimethyl-2-((R)-1-methylpiperidine-2-carboxamido)butanamido)-4-methylpentyl)thiazole-4-carboxamido)-2-methyl-5-phenylpentanoate] | – | – | – | > 100 | > 100 | – |
| CCCCN1CCCC[C@@H]1C(=O)N[C@H](C(=O)N(C)[C@H](CCc1nc(C(=O)N[C@@H](Cc2ccccc2)C[C@H](C)C(=O)OC)cs1)C(C)C)C(C)C [PTb-D51, Methyl(2S,4R)-4-(2-((R)-3-((S)-2-((R)-1-butylpiperidine-2-carboxamido)-N,3-dimethylbutanamido)-4-methylpentyl)thiazole-4-carboxamido)-2-methyl-5-phenylpentanoate] | – | – | – | > 100 | > 100 | – |
| CC[C@H](C)[C@H](NC(=O)[C@H]1CCCCN1C)C(=O)N(C)[C@H](C[C@@H](OC(C)=O)c1nc(C(=O)NC23C4C5C2C2C3C4C52C(=O)OC)cs1)C(C)C (stereo partly drawn) [Tb1l] | – | – | – | – | – | pIC50 ([1]; MES SA, read-out: IC50 MES SA): 9.08; pIC50 ([2]; HEK 293T, read-out: IC50 HEK 293T): 9.59 |
| COC(=O)[C@H](Cc1ccccc1)NC(=O)c1csc([C@@H](C[C@H](C(C)C)N(C)C(=O)[C@@H](NC(=O)[C@H]2CCCCN2C)C2CC2)OC(C)=O)n1 [Tb24, Methyl(2-((1R,3R)-1-acetoxy-3-((S)-2-cyclopropyl-N-methyl-2-((R)-1-methylpiperidine-2-carboxam-ido)acetamido)-4-methylpentyl)thiazole-4-carbonyl)-L-phenylalaninate] | 7.88 | 8.01 | < 7.00 | – | – | – |
| COC(=O)[C@@H](C)C[C@H](Cc1ccccc1)NC(=O)c1csc([C@@H](C[C@H](C(C)C)N(C)C(=O)[C@@H](NC(=O)[C@H]2CCCN2C)C2CC2)OC(C)=O)n1 [Tb26, (2S,4R)-Methyl 4-(2-((1R,3R)-1-acetoxy-3-((S)-2-cyclopropyl-N-methyl-2-((R)-1-methylpyrrolidine-2-carboxamido)acetamido)-4-methylpentyl)thiazole-4-carboxamido)-2methyl-5-phenylpentanoate] | 9.70 | 9.92 | < 7.00 | – | – | pIC50 ([1]; Homo sapiens, MES-SA, read-out: IC50 MES SA): 9.70; pIC50 ([2]; Homo sapiens, HEK-293T, read-out: IC50 HEK 293T): 9.92 |
| COC(=O)[C@@H](C)C[C@H](Cc1ccccc1)NC(=O)c1csc([C@@H](C[C@H](C(C)C)N(C)C(=O)C2(NC(=O)[C@H]3CCCCN3C)CC2)OC(C)=O)n1 [Tb27, (2S,4R)-Methyl 4-(2-((1R,3R)-1-acetoxy-4-methyl-3-(N-methyl-1-((R)-1-methylpiperidine-2-carboxamido)cyclopropanecarboxamido)pentyl)thiazole-4-carboxamido)-2-methyl-5-phenylpentanoate] | 8.61 | 8.71 | < 7.00 | – | – | – |
| COC(=O)[C@@H](C)C[C@H](Cc1ccccc1)NC(=O)c1csc([C@@H](C[C@H](C(C)C)N(C)C(=O)C2(NC(=O)[C@H]3CCCCN3C)CCC2)OC(C)=O)n1 [Tb28, (2S,4R)-Methyl 4-(2-((1R,3R)-1-acetoxy-4-methyl-3-(N-methyl-1-((R)-1-methylpiperidine-2-carboxamido)cyclobutanecarboxamido)pentyl)thiazole-4-carboxamido)-2-methyl-5-phenylpentanoate] | 8.95 | 9.16 | 7.09 | – | – | – |
| COC(=O)[C@@H](C)C[C@H](Cc1ccccc1)NC(=O)c1csc([C@@H](C[C@H](C(C)C)N(C)C(=O)C2(NC(=O)[C@H]3CCCCN3C)CCCC2)OC(C)=O)n1 [Tb-52, Methyl (2S,4R)-4-(2-((1R,3R)-1-acetoxy-4-methyl-3-(N-methyl-1-((R)-1-methylpiperidine-2-carboxa-mido)cyclopentane-1-carboxamido)pentyl)thiazole-4-carboxamido)-2-methyl-5-phenylpentanoate] | – | – | – | 7.18 | 5.78 | – |
| CC[C@H](C)[C@H](NC(=O)[C@H]1CCCCN1C)C(=O)N[C@H](C[C@@H](OC(C)=O)c1nc(C(=O)N[C@@H](Cc2ccccc2)C[C@H](C)C(=O)OC)cs1)C(C)C [Tb-53, (2S,4R)-Methyl 4-(2-((1R,3R)-1-acetoxy-4-methyl-3-((2S,3S)-3-methyl-2-((R)-1-methylpiperidine-2-carboxamido)pentanamido)pentyl)thiazole-4-carboxamido)-2-methyl-5-phenyl pentanoate] | – | – | – | 0.92 | 0.56 | – |
| CC[C@H](C)[C@H](NC(=O)[C@H]1CCCCN1C)C(=O)N[C@H](C[C@@H](OC(C)=O)c1nc(C(=O)N[C@@H](Cc2ccccc2)C[C@H](C)C(=O)O)cs1)C(C)C [Tb-54, (2S,4R)-4-(2-((1R,3R)-1-Acetoxy-4-methyl-3-((2S,3S)-3-methyl-2-((R)-1-methylpiperidine-2-carboxamido)pentanamido)pentyl)thiazole-4-carboxamido)-2-methyl-5-phenylpentanoic Acid] | – | – | – | – | – | pIC50 ([1]; Homo sapiens, MES SA, Table 3, read-out: MES SA IC50): 8.21; pIC50 ([2]; Homo sapiens, HEK 293T, Table 3, read-out: HEK 293T IC50): 9.14 |
| COC(=O)C12CC(NC(=O)c3csc([C@@H](C[C@H](C(C)C)N(C)C(=O)[C@@H](NC(=O)[C@H]4CCCCN4C)C(C)C)OC(C)=O)n3)(C1)C2 [Tb-55, Methyl 3-(2-((1R,3R)-1-acetoxy-3-((S)—N,3-dimethyl-2-((R)-1-methylpiperidine-2-carboxamido)butanamido)-4-methylpentyl)thiazole-4-carboxamido)bicyclo[1.1.1]pentane-1-carboxylate] | – | – | – | 0.93 | 0.35 | – |
| COC(=O)CC12CC(NC(=O)c3csc([C@@H](C[C@H](C(C)C)N(C)C(=O)[C@@H](NC(=O)[C@H]4CCCCN4C)C(C)C)OC(C)=O)n3)(C1)C2 [Tb-56, Methyl 2-(3-(2-((1R,3R)-1-acetoxy-3-((S)—N,3-dimethyl-2-((R)-1-methylpiperidine-2-carboxamido)butanamido)-4-methylpentyl)thiazole-4-carboxamido)bicyclo[1.1.1]pentan-1-yl)] | – | – | – | ~2.73 | 1.79 | – |
| COC(=O)[C@@H](C)C[C@H](Cc1ccc(F)cc1)NC(=O)c1csc([C@@H](C[C@H](C(C)C)N(C)C(=O)[C@@H](NC(=O)[C@H]2CCCCN2C)C2CC2)OC(C)=O)n1 [Tb-57, Methyl (2S,4R)-4-(2-((1R,3R)-1-acetoxy-3-((S)-2-cyclopropyl-N-methyl-2-((R)-1-methylpiperidine-2-carboxamido)acetamido)-4-methylpentyl)thiazole-4-carboxamido)-5-(4-fluorophenyl)-2-methylpentanoate] | – | – | – | ~89.3 | ~105 | – |
| COC(=O)[C@H]1CC[C@H](NC(=O)c2csc([C@@H](C[C@H](C(C)C)N(C)C(=O)[C@@H](NC(=O)[C@H]3CCCCN3C)C(C)C)OC(C)=O)n2)CC1 [Tb-58, Methyl (1R,4r)-4-(2-((1R,3R)-1-acetoxy-3-((S)—N,3-dimethyl-2-((R)-1-methylpiperidine-2-carboxamido)butanamido)-4-methylpentyl)thiazole-4-carboxamido)cyclohexane-1-carboxylate] | – | – | – | 6.16 | 3.83 | – |
| CC(=O)O[C@H](C[C@H](C(C)C)N(C)C(=O)[C@@H](NC(=O)[C@H]1CCCCN1C)C(C)C)c1nc(C(=O)N[C@H]2CC[C@H](C(=O)O)CC2)cs1 [Tb-59, (1R,4r)-4-(2-((1R,3R)-1-Acetoxy-3-((S)—N,3-dimethyl-2-((R)-1-methylpiperidine-2-carboxamido)butanamido)-4-methylpentyl)thiazole-4-carboxamido)cyclohexane-1-carboxylic Acid] | – | – | – | > 100 | > 100 | – |
| CCCCN1CCCC[C@@H]1C(=O)N[C@H](C(=O)N(C)[C@H](C[C@@H](OC(C)=O)c1nc(C(=O)N[C@H]2CC[C@H](C(=O)OC)CC2)cs1)C(C)C)C(C)C [Tb-60, Methyl (1R,4r)-4-(2-((1R,3R)-1-acetoxy-3-((S)-2-((R)-1-butylpiperidine-2-carboxamido)-N,3-dimethylbutanamido)-4-methylpentyl)thiazole-4-carboxamido)cyclohexane-1-carboxylate] | – | – | – | > 100 | > 100 | – |
| CCCCN1CCCC[C@@H]1C(=O)N[C@H](C(=O)N(C)[C@H](C[C@@H](OC(C)=O)c1nc(C(=O)N[C@H]2CC[C@H](C(=O)O)CC2)cs1)C(C)C)C(C)C [Tb-61] | – | – | – | > 100 | > 100 | – |
